Laboratory results from ChEMBL document CHEMBL1130791, “Novel HIV-protease inhibitors containing beta-hydroxyether and -thioether dipeptide isostere surrogates: modification of the P3 ligand” (Bioorg Med Chem Lett, 1998).
Active and inactive are the calls of the source. The calls are words filed in the database; no cut-off is given here.

Legend:
[1] = target: Human immunodeficiency virus type 1 protease (Human immunodeficiency virus 1) (UniProt Q72874); test: Antiviral activity against the HTLV-III strain of HIV-1 in CEM cell lines; format: functional, cell-based; settings: CCRF-CEM
[2] = target: T1, Human immunodeficiency virus type 1 protease (Human immunodeficiency virus 1, UniProt Q72874); test: Inhibitory activity against HIV-1 protease using scintillation proximity assay (SPA assay)
[3] = target: Human immunodeficiency virus type 1 protease (Human immunodeficiency virus 1) (UniProt Q72874); test: Inhibitory activity against HIV-1 protease using scintillation proximity assay (SPA assay) at a concentration of 500 nM
CCRF-CEM = test: Compound was evaluated for antiviral activity against the HTLV-III strain of HIV-1 in CEM cell lines; NA means not active; format: functional, cell-based; settings: Homo sapiens
[4] = target: T1, Human immunodeficiency virus type 1 protease; test: Inhibitory activity against HIV-1 protease using scintillation proximity assay (SPA assay); NA means not active

| Structure (SMILES) | ID50 [1] | IC50 [2] | further results |
| --- | --- | --- | --- |
| CC(C)(C)NC(=O)c1ccccc1OC[C@H](O)[C@H](Cc1ccccc1)NC(=O)[C@H](CC(N)=O)NC(=O)c1cnnc2ccccc12 | 13400 nM | 500 nM |  |
| CC(C)(C)NC(=O)c1ccccc1OC[C@H](O)[C@H](Cc1ccccc1)NC(=O)[C@H](CC(N)=O)NC(=O)c1cnc2ccccc2n1 | 610 nM | 100 nM |  |
| CC(C)(C)NC(=O)c1ccccc1OC[C@H](O)[C@H](Cc1ccccc1)NC(=O)[C@H](CC(N)=O)NC(=O)c1nc2ccccc2nc1O | 10600 nM |  | inhibition [3]: 35% |
| CC(C)(C)NC(=O)c1ccccc1OC[C@@H](O)[C@H](Cc1ccccc1)NC(=O)[C@H](CC(N)=O)NS(=O)(=O)c1ccc2ccccc2c1 |  |  | inhibition [3]: 42%; ID50 (CCRF-CEM): inactive |
| CC(C)(C)NC(=O)c1ccccc1OC[C@@H](O)[C@H](Cc1ccccc1)NC(=O)[C@H](CC(N)=O)NC(=O)c1ccc2ccccc2n1 |  | 45 nM |  |
| CC(C)(C)NC(=O)c1c(OC[C@@H](O)[C@H](Cc2ccccc2)NC(=O)[C@H](CC(N)=O)NC(=O)c2ccc3c(c2)C(=O)c2ccccc2C3=O)ccc2ccccc12 | 160 nM | 62 nM |  |
| CC(C)(C)NC(=O)c1ccccc1OC[C@@H](O)[C@H](Cc1ccccc1)NC(=O)[C@H](CC(N)=O)NC(=O)c1nc2ccccc2nc1O |  |  | inhibition [3]: 36%; ID50 (CCRF-CEM): inactive |
| CC(C)(C)NC(=O)c1ccccc1SC[C@H](O)[C@H](Cc1ccccc1)NC(=O)[C@H](CC(N)=O)NC(=O)c1ccc2ccccc2c1 | 13400 nM | 390 nM |  |
| CC(C)(C)NC(=O)c1c(OC[C@@H](O)[C@H](Cc2ccccc2)NC(=O)[C@H](CC(N)=O)NC(=O)c2ccc3c(c2)S(=O)(=O)c2ccccc2C3=O)ccc2ccccc12 | 100 nM | 60 nM |  |
| CC(C)(C)NC(=O)c1ccccc1NC[C@@H](O)[C@H](Cc1ccccc1)NC(=O)[C@H](CC(N)=O)NC(=O)c1ccc2ccccc2n1 |  | 94 nM |  |
| CC(C)(C)NC(=O)c1ccccc1OC[C@H](O)[C@H](Cc1ccccc1)NC(=O)[C@H](CC(N)=O)NS(=O)(=O)c1ccc2ccccc2c1 |  |  | ID50 (CCRF-CEM): inactive |
| CC(C)(C)NC(=O)c1ccccc1OC[C@@H](O)[C@H](Cc1ccccc1)NC(=O)[C@H](CC(N)=O)NC(=O)c1cnnc2ccccc12 | 9300 nM | 130 nM |  |
| CC(C)(C)NC(=O)c1ccccc1OC[C@H](O)[C@H](Cc1ccccc1)NC(=O)[C@H](CC(N)=O)NC(=O)c1cc(O)c2ccccc2n1 | 11200 nM | 410 nM |  |
| CC(C)(C)NC(=O)c1ccccc1OC[C@@H](O)[C@H](Cc1ccccc1)NC(=O)[C@H](CC(N)=O)NC(=O)c1cnc2ccccc2n1 | 630 nM | 63 nM |  |
| CC(C)(C)NC(=O)c1ccccc1SC[C@@H](O)[C@H](Cc1ccccc1)NC(=O)[C@H](CC(N)=O)NC(=O)c1ccc2ccccc2n1 |  | 90 nM |  |
| CC(C)(C)NC(=O)c1ccccc1OC[C@@H](O)[C@H](Cc1ccccc1)NC(=O)[C@H](CC(N)=O)NC(=O)c1ccc2c(c1)C(=O)c1ccccc1C2=O | 330 nM | 41 nM |  |
| CC(C)(C)NC(=O)c1ccccc1SC[C@H](O)[C@H](Cc1ccccc1)NC(=O)[C@H](CC(N)=O)NC(=O)c1ccccn1 |  |  | IC50 [4]: Not Active |
| CC(C)(C)NC(=O)c1ccccc1OC[C@H](O)[C@H](Cc1ccccc1)NC(=O)[C@H](CC(N)=O)NC(=O)c1ccc2c(c1)C(=O)c1ccccc1C2=O | 2300 nM | 90 nM |  |
| CC(C)(C)NC(=O)c1ccccc1OC[C@@H](O)[C@H](Cc1ccccc1)NC(=O)[C@H](CC(N)=O)NC(=O)c1ccc2c(c1)S(=O)(=O)c1ccccc1C2=O | 550 nM | 44 nM |  |
